# Laboratory results taken from PMC7587356, “High-Throughput Screening for Inhibitors of the SARS-CoV-2 Protease Using a FRET-Biosensor” (Molecules, 2020).
# Where a name gives a salt, the structure may show the parent alone. Read-outs that look alike come from different tables or passages of the source.
# Biological target: SARS-CoV-2 3CLpro (Severe acute respiratory syndrome coronavirus 2, UniProt P0DTD1)
# Assay: biochemical
# Assay type: biochemical
# Design: Replicate_1 / Replicate_2 / mean / mean (LOPAC_screen_w_protease): unit not given here
# Details: for mean (LOPAC screen with protease) / Replicate_1 (LOPAC screen with protease) / Replicate_2 (LOPAC screen with protease): primary screen at 5 µM
# [1] = sheet LOPAC_screen_w_protease, mean of two replicates
# [2] = sheet LOPAC_screen_w_protease, replicate 1
# [3] = sheet LOPAC_screen_w_protease, replicate 2
# [4] = sheet LOPAC_screen_w_protease, primary screen of LOPAC1280 at 5 µM with protease, mean of the two replicates
# [5] = sheet LOPAC_screen_w_protease, primary screen of LOPAC1280 at 5 µM with protease, replicate 1
# [6] = sheet LOPAC_screen_w_protease, primary screen of LOPAC1280 at 5 µM with protease, replicate 2
# [7] = 4 h, sheet LOPAC_screen_w_protease, LOPAC1280 primary screen at 5 µM, with protease, mean of the two replicates, read-out: mean
# [8] = 4 h, sheet LOPAC_screen_w_protease, LOPAC1280 primary screen at 5 µM, with protease, replicate 1, read-out: Replicate_1
# [9] = 4 h, sheet LOPAC_screen_w_protease, LOPAC1280 primary screen at 5 µM, with protease, replicate 2, read-out: Replicate_2
# [10] = LOPAC1280 primary screen with protease, 5 µM compound, mean of two replicates
# [11] = LOPAC1280 primary screen with protease, 5 µM compound, replicate 1
# [12] = LOPAC1280 primary screen with protease, 5 µM compound, replicate 2
# [13] = LOPAC1280 primary screen with protease, 5 µM compound, mean of the two replicates
# [14] = sheet LOPAC_screen_w_protease, LOPAC1280 primary screen with protease, 5 µM compound, mean of the two replicates
# [15] = sheet LOPAC_screen_w_protease, LOPAC1280 primary screen with protease, 5 µM compound, replicate 1
# [16] = sheet LOPAC_screen_w_protease, LOPAC1280 primary screen with protease, 5 µM compound, replicate 2
# [17] = 4 h, LOPAC1280 primary screen with protease, 5 µM compound, replicate 1, read-out: Replicate_1 (LOPAC_screen_w_protease)
# [18] = 4 h, LOPAC1280 primary screen with protease, 5 µM compound, replicate 2, read-out: Replicate_2 (LOPAC_screen_w_protease)
# [19] = sheet LOPAC_screen_w_protease, primary screen with protease, 5 µM, mean of two replicates
# [20] = sheet LOPAC_screen_w_protease, primary screen with protease, 5 µM, replicate 1
# [21] = sheet LOPAC_screen_w_protease, primary screen with protease, 5 µM, replicate 2
# [22] = 4 h, sheet LOPAC_screen_w_protease, LOPAC1280 at 5 µM, mean of two replicates, read-out: mean
# [23] = 4 h, sheet LOPAC_screen_w_protease, LOPAC1280 at 5 µM, replicate 1, read-out: Replicate_1
# [24] = 4 h, sheet LOPAC_screen_w_protease, LOPAC1280 at 5 µM, replicate 2, read-out: Replicate_2
# [25] = sheet LOPAC_screen_w_protease, primary screen with protease, mean of two replicates
# [26] = sheet LOPAC_screen_w_protease, primary screen with protease, replicate 1
# [27] = sheet LOPAC_screen_w_protease, primary screen with protease, replicate 2
compound,measurement,setting,value
"Nc1ccc2c3c(cccc13)C(=O)NC2=O [4-Amino-1,8-naphthalimide]",mean (LOPAC screen with protease),[1],6.555
same,Replicate_1 (LOPAC screen with protease),[2],8.124
same,Replicate_2 (LOPAC screen with protease),[3],4.986
CN1CCc2cc(Cl)c(O)cc2[C@@H](c2ccccc2)C1.Cl [R(+)-SCH-23390 hydrochloride],mean,[4],3.494
same,Replicate_1,[5],4.714
same,Replicate_2,[6],2.274
N#CC(C#N)=Cc1ccc(O)c(O)c1 [Tyrphostin 23],inhibition at 5 µM,"4 h, sheet LOPAC_screen_w_protease, primary screen with protease, compound at 5 µM, mean of two replicates, read-out: mean",3.07%
same,inhibition at 5 µM,"4 h, sheet LOPAC_screen_w_protease, primary screen with protease, compound at 5 µM, replicate 1, read-out: Replicate_1",2.09%
same,inhibition at 5 µM,"4 h, sheet LOPAC_screen_w_protease, primary screen with protease, compound at 5 µM, replicate 2, read-out: Replicate_2",4.04%
O=C(NCCNCC(O)COc1ccc(O)cc1)N1CCOCC1 (stereo not drawn) [Xamoterol hemifumarate],inhibition at 5 µM,[7],0.551%
same,inhibition at 5 µM,[8],1.09%
same,inhibition at 5 µM,[9],0.0143%
"NCC(=O)NCCC(c1ccccc1)c1ccccc1 [N-(3,3-Diphenylpropyl)glycinamide]",mean (LOPAC_screen_w_protease),[10],1.396
same,Replicate_1 (LOPAC_screen_w_protease),[11],1.194
same,Replicate_2 (LOPAC_screen_w_protease),[12],1.598
CCc1cc(Cl)c(O)c(C(=O)NC[C@@H]2CCCN2CC)c1OC.Cl [S-(-)-Eticlopride hydrochloride],mean (LOPAC_screen_w_protease),[13],2.005
same,Replicate_1 (LOPAC_screen_w_protease),[11],2.376
same,Replicate_2 (LOPAC_screen_w_protease),[12],1.635
CCCCCCN(CCCCCC)C(=O)Cc1c(-c2ccc(F)cc2)[nH]c2ccccc12,mean,[14],4.628
same,Replicate_1,[15],5.9351
same,Replicate_2,[16],3.32
CN1CCc2ccccc2Cc2[nH]c3ccccc3c2CC1 [LE 300],Replicate_1,,0.4919
same,Replicate_2,,1.5197
same,mean,,1.0058
NNC(=O)c1ccc(O)cc1 [4-Hydroxybenzhydrazide],mean,"sheet LOPAC_screen_w_protease, primary screen with protease, compound at 5 µM, mean of two replicates",2.583
same,Replicate_1,"sheet LOPAC_screen_w_protease, primary screen with protease, compound at 5 µM, replicate 1",1.695
same,Replicate_2,"sheet LOPAC_screen_w_protease, primary screen with protease, compound at 5 µM, replicate 2",3.47
Cc1ccccc1/C=C/C1=NCCN1 [Metrazoline oxalate],inhibition at 5 µM,[17],2.83%
same,inhibition at 5 µM,[18],0.879%
same,mean (LOPAC_screen_w_protease),[13],1.853
"O=C(O)[C@@H]1C[C@H](C(=O)O)N1 [cis-Azetidine-2,4-dicarboxylic acid]",mean (LOPAC_screen_w_protease),[10],1.501
same,Replicate_1 (LOPAC_screen_w_protease),[11],1.545
same,Replicate_2 (LOPAC_screen_w_protease),[12],1.457
C[C@]12C=CC(=O)C=C1CC[C@@H]1C2=CC[C@]2(C)[C@@H](C(=O)CN3CCN(c4cc(N5CCCC5)nc(N5CCCC5)n4)CC3)CC[C@@H]12.O=C(O)/C=C\C(=O)O [U-74389G maleate],mean,[19],-0.1973
same,Replicate_1,[20],-0.4551
same,Replicate_2,[21],0.0606
O=C(NCC1CCCCN1)c1cc(OCC(F)(F)F)ccc1OCC(F)(F)F (stereo not drawn) [Flecainide acetate],inhibition at 5 µM,[22],1.01%
same,inhibition at 5 µM,[23],2.84%
same,inhibition at 5 µM,[24],-0.814%
N=C(N)NC(CCC(=O)O)C(=O)O (stereo not drawn) [alpha-Guanidinoglutaric acid],mean (LOPAC_screen_w_protease),[13],1.992
same,Replicate_1 (LOPAC_screen_w_protease),[11],2.352
same,Replicate_2 (LOPAC_screen_w_protease),[12],1.632
CN1C(=O)CCS(=O)(=O)C1c1ccc(Cl)cc1 (stereo not drawn) [Chlormezanone],inhibition at 5 µM,[7],0.463%
same,inhibition at 5 µM,[8],2.15%
same,inhibition at 5 µM,[9],-1.22%
Cn1c(=O)c2c(ncn2C)n(C)c1=O [Caffeine],inhibition at 5 µM,"4 h, sheet LOPAC_screen_w_protease, primary screen with protease, mean of two replicates, read-out: mean",2.35%
same,inhibition at 5 µM,"4 h, sheet LOPAC_screen_w_protease, primary screen with protease, replicate 1, read-out: Replicate_1",1.98%
same,inhibition at 5 µM,"4 h, sheet LOPAC_screen_w_protease, primary screen with protease, replicate 2, read-out: Replicate_2",2.71%
C#CCN1C(C)=C(C(=O)OC)C(c2cccc([N+](=O)[O-])c2)C(C(=O)OCC)=C1C (stereo not drawn) [MRS 1845],mean,[14],4.379
same,Replicate_1,[15],3.994
same,Replicate_2,[16],4.765
Cl.NCC(O)c1ccc(O)cc1 (racemic) [(±)-Octopamine hydrochloride],mean,[4],4.023
same,Replicate_1,[5],4.835
same,Replicate_2,[6],3.21
NCC(CP(=O)(O)O)c1ccc(Cl)cc1 (stereo not drawn) [Phaclofen],mean,"sheet LOPAC_screen_w_protease, LOPAC1280 at 5 µM, mean of two replicates",1.154
same,Replicate_1,"sheet LOPAC_screen_w_protease, LOPAC1280 at 5 µM, replicate 1",-0.2982
same,Replicate_2,"sheet LOPAC_screen_w_protease, LOPAC1280 at 5 µM, replicate 2",2.606
"O=c1cc(-c2ccc(O)c(O)c2)oc2cc(O)cc(O)c12 [luteolin, reference compound]",inhibition at 5 µM,"4 h, read-out: Replicate_1",0.919%
same,inhibition at 5 µM,"4 h, read-out: Replicate_2",1.72%
same,inhibition at 5 µM,"4 h, read-out: mean",1.32%
same,inhibition at 5 µM,read-out: inhibition of 3CLpro in the primary screen,1.3%
CCN(CC)CC#CCOC(=O)C(O)(c1ccccc1)C1CCCCC1 (stereo not drawn) [Oxybutynin Chloride],inhibition at 5 µM,"4 h, sheet LOPAC_screen_w_protease, LOPAC1280 primary screen with protease, 5 µM compound, mean of the two replicates, read-out: mean",4.78%
same,inhibition at 5 µM,"4 h, sheet LOPAC_screen_w_protease, LOPAC1280 primary screen with protease, 5 µM compound, replicate 1, read-out: Replicate_1",4.91%
same,inhibition at 5 µM,"4 h, sheet LOPAC_screen_w_protease, LOPAC1280 primary screen with protease, 5 µM compound, replicate 2, read-out: Replicate_2",4.65%
Cl.N[C@@H](CCC(=O)O)C(=O)O [L-Glutamic acid hydrochloride],mean (LOPAC_screen_w_protease),[10],1.56
same,Replicate_1 (LOPAC_screen_w_protease),[11],1.529
same,Replicate_2 (LOPAC_screen_w_protease),[12],1.59
Cc1ccc(S(=O)(=O)N[C@@H](Cc2ccccc2)C(=O)CCl)cc1,mean (LOPAC screen with protease),[1],61.4515
same,Replicate_1 (LOPAC screen with protease),[2],61.5523
same,Replicate_2 (LOPAC screen with protease),[3],61.3507
O=c1[nH]c2cc(C(F)(F)F)ccc2n1-c1cc(C(F)(F)F)ccc1O [NS-1619],mean (LOPAC screen with protease),[1],7.54
same,Replicate_1 (LOPAC screen with protease),[2],6.544
same,Replicate_2 (LOPAC screen with protease),[3],8.536
C=CCc1ccccc1OCC(O)CNC1(C)CCC(C(C)(C)NC(=O)CBr)CC1 (stereo not drawn) [Bromoacetyl alprenolol menthane],inhibition at 5 µM,[22],1.3%
same,inhibition at 5 µM,[23],0.0303%
same,inhibition at 5 µM,[24],2.58%
O=C1Cc2c([nH]c3ccc(Br)cc23)-c2ccccc2N1 [Kenpaullone],inhibition at 5 µM,"4 h, read-out: Replicate_1",1.52%
same,inhibition at 5 µM,"4 h, read-out: Replicate_2",3.46%
same,inhibition at 5 µM,"4 h, read-out: mean",2.49%
CCCCN1CCC(COC(=O)c2cc(Cl)c(N)c3c2OCCO3)CC1.Cl [SB 204070 hydrochloride],mean,[25],2.545
same,Replicate_1,[26],1.507
same,Replicate_2,[27],3.5833
17alpha-hydroxyprogesterone,mean,[25],2.147
same,Replicate_1,[26],1.557
OC[C@H]1O[C@@H](n2cnc3c(NCCc4ccccc4)ncnc32)[C@H](O)[C@@H]1O [N6-2-Phenylethyladenosine],mean,"sheet LOPAC_screen_w_protease, LOPAC1280 primary screen at 5 µM, with protease, mean of the two replicates",0.6761
same,Replicate_1,"sheet LOPAC_screen_w_protease, LOPAC1280 primary screen at 5 µM, with protease, replicate 1",1.884
same,Replicate_2,"sheet LOPAC_screen_w_protease, LOPAC1280 primary screen at 5 µM, with protease, replicate 2",-0.5317
CCCN(CCC)CCc1ccc(O)c(O)c1 [Dipropyldopamine hydrobromide],inhibition at 5 µM,[17],3.8%
same,inhibition at 5 µM,[18],0.246%
same,mean (LOPAC_screen_w_protease),[13],2.021
CC(=O)O.NC(=NCCC[C@H](N)C(=O)O)NO [NG-Hydroxy-L-arginine acetate],mean,[25],2.232
same,Replicate_1,[26],2.489
same,Replicate_2,[27],1.975
N[C@@H](Cc1ccc(O)c(I)c1)C(=O)O [3-Iodo-L-tyrosine],mean (LOPAC_screen_w_protease),[13],1.849
same,Replicate_1 (LOPAC_screen_w_protease),[11],1.662
same,Replicate_2 (LOPAC_screen_w_protease),[12],2.037
NS(=O)(=O)c1cc2c(cc1Cl)N=CNS2(=O)=O [Chlorothiazide],inhibition at 5 µM,[22],0.892%
same,inhibition at 5 µM,[23],1.61%
same,inhibition at 5 µM,[24],0.17%
CCCCC1(C2CCCC2)Cc2cc(OCC(=O)O)c(Cl)c(Cl)c2C1=O (stereo in doubt) [R(+)-Butylindazone],mean,[25],2.217
same,Replicate_1,[26],3.715
same,Replicate_2,[27],0.7192
CC[C@]1(O)C[C@@H]2CN(CCc3c([nH]c4ccccc34)[C@@](C(=O)OC)(c3cc4c(cc3OC)N(C)[C@H]3[C@@](O)(C(=O)OC)[C@H](OC(C)=O)[C@]5(CC)C=CCN6CC[C@]43[C@@H]65)C2)C1.O=S(=O)(O)O [Vinblastine sulfate salt],mean,[19],0.3705
same,Replicate_1,[20],2.018
same,Replicate_2,[21],-1.277
